# Experimental data published in patent publication US20260266848A1, “COMPOSITIONS AND METHODS FOR DIAGNOSING AND TREATING DYSTONIA” (Duke University, priority 2023, published 2026).
# Tests used:
# WT MEF EVs = experiment: Quantitative LC-MS/MS proteomics of EVs from ISRIB-treated WT MEF cultures; assay type: cell-based, mouse; parameters: key to ISRIB and DYT Parallel Direction / ISRIB and DYT Parallel Direction, Ctdsp1 / ISRIB and DYT Parallel Direction, Pcdh19 / ISRIB and DYT Parallel Direction, Tspan7 / ISRIB and DYT Parallel Direction, Myo1e / ISRIB and DYT Parallel Direction, Plpp3 / ISRIB and DYT Parallel Direction, Sh3bp4 / ISRIB and DYT Parallel Direction, Dnajc7 / ISRIB and DYT Parallel Direction, Drg1 / ISRIB and DYT Parallel Direction, Maea: YES = protein abundance effect similar to DYT/WT; conditions: EV protein abundance; for WT + ISRIB/WT Cohen's d: ISRIB-treated WT vs WT; for ISRIB and DYT Parallel Direction: WT + ISRIB vs WT, direction compared with DYT/WT
# DYT-TOR1A MEF EVs = experiment: Quantitative LC-MS/MS proteomics of EVs from drug-treated DYT-TOR1A MEF cultures (ritonavir, salubrinal); assay type: cell-based, mouse; parameters: key to RTV Corrective Direction / RTV Corrective Direction, Grwd1 / RTV Corrective Direction, Srrm2 / RTV Corrective Direction, Rbm17 / RTV Corrective Direction, Dcaf8 / RTV Corrective Direction, Edil3 / RTV Corrective Direction, Timp3 / RTV Corrective Direction, Heatr3 / RTV Corrective Direction, Brd4 / RTV Corrective Direction, P3h4 / RTV Corrective Direction, Pacsin3 / RTV Corrective Direction, Naa50 / RTV Corrective Direction, Lpar6 / RTV Corrective Direction, Ndrg1 / RTV Corrective Direction, Kntc1 / RTV Corrective Direction, Cdk11b / RTV Corrective Direction, Sumo1 / RTV Corrective Direction, Lsm4 / RTV Corrective Direction, Hmga2 / RTV Corrective Direction, Cstf1 / RTV Corrective Direction, Tes / RTV Corrective Direction, Sbno1 / RTV Corrective Direction, Unc119b / RTV Corrective Direction, Cfdp1 / RTV Corrective Direction, Sec61b: YES = protein abundance effect opposite to DYT/WT; conditions: EV protein abundance; for RTV Corrective Direction: DYT + RTV (ritonavir) vs DYT, direction compared with DYT/WT; for DYT + RTV/DYT Cohen's d: ritonavir (RTV)-treated DYT vs DYT
Substance,WT + ISRIB/WT Cohen's d (WT MEF EVs),ISRIB and DYT Parallel Direction (WT MEF EVs),RTV Corrective Direction (DYT-TOR1A MEF EVs),DYT + RTV/DYT Cohen's d (DYT-TOR1A MEF EVs)
Col10a1,0.36,YES,YES,−3.41
Cope,−1.30,YES,YES,7.24
Cul3,−0.66,YES,YES,2.36
Ddx39b,−1.12,YES,YES,13.79
Dhx9,−1.27,YES,YES,6.23
